The text below walks through data of US20240252688A1, “COMPOSITIONS AND METHODS FOR ENHANCED PROTEIN PRODUCTION” (HDT Bio Corp., priority 2021, published 2024).

Counter-ions that a name gives are not always drawn.

The test system of one data set is C57BL/6 mice. The experiment in a line: IM injection of repRNA-SEAP with nanoparticle-encapsulated inhibitors: serum SEAP. To be noted: 500 μM dose level versus equivalent no compound group, days 3-28. In kind it is in vivo. The method, then: The ten candidate compounds were formulated in NP-1 nanoparticle emulsion to evaluate their effect on expression when co-delivered with repRNA. All compounds were readily soluble in non-polar solvents which enabled dissolution in the lipophilic squalene oil phase of NP-1. A probe sonication process was adapted to formulate candidate compounds in 1 mL batches of nanoparticle emulsions. The z-average nanoparticle diameter was measured by dynamic light scattering (DLS) and ranged from 110-130 nm. Activity of compounds formulated in nanoparticle emulsions was tested both in vitro (FIG. 11A). Cells were transfected with 20 ng repRNA per well in the presence of IFN and delivered with empty nanoparticles (no inhibitor) or nanoparticle encapsulating a compound inhibitor delivered at a calculated 0.5 μM per well. […] C57BL/6 female mice (6-8 weeks old; n=3/group) were injected by IM route with 10 μg repRNA-SEAP complexed with empty nanoparticles (no compound) or nanoparticles encapsulating a small molecule inhibitor at 500 μM. The positive control group received an IFNAR-1 blocking monoclonal antibody (MAR1-5A3) by intraperitoneal (IP) injection one day before IM injection of NP-1/repRNA-SEAP. […]

The subject of data set [1] is IFIT2. The experiment in a line: NP-35 co-transfection: IFIT2 induction. The note with it: NP-35-formulated compound, A549-Dual cells. Format: cell-based, human.
The next data set concerns BALB/c mice. The experiment in a line: Systemic (IV) compounds with IM NP-1/repRNA-ZIKV-117: serum ZIKV-117. Format: in vivo. The note with it: for ZIKV-117 expression compared to no compound group: compound IV (Dinaciclib 5 mg/kg, CDKI-73 5 mg/kg, AZD4573 1 mg/kg), 10 μg repRNA-ZIKV-117 IM, days 3-28. The method, then: The purpose of the experiment was to evaluate the effect of systemically administered compound inhibitors on protein expression.
A molar ratio of nitrogen to phosphate (N:P) for each of the formulation was adjusted. […] Each compound was formulated as an aqueous solution or suspension following instructions from the vendor (MedChemExpress). At the same time as systemic compound treatment, mice were given 10 μg repRNA-encoding ZIKV-117 mAb complexed to nanoparticles by IM injection in the hind leg. Mice were bled on days 3, 5, 7, 10, 14, 21 and 28 after administration of NP-1/repRNA-ZIKV-117, and assayed for ZIKV-117 levels in serum. The positive control group received an IFNAR-1 blocking monoclonal antibody (MAR1-5A3) by intraperitoneal (IP) injection one day before administration of NP-1/repRNA-ZIKV-117.

The subject of data set [2] is IFIT2. The experiment in a line: Single-point screen: IFIT2 activation (Lucia luciferase, QUANTI-Luc). Format: cell-based, human. To be noted: A549-Dual cells, compound 50 μM pre-treatment, NP-1+mRNA 20 ng/well + IFN; for fold induction at 50 µM: Homo sapiens, 24 h, read-out: fold IFIT over IFN. From the text: (§1) The cells produce secreted embryonic alkaline phosphatase (SEAP), under the control of the interferon beta […] minimal promoter fused to five NF-κB binding sites. The cells also secrete lucia luciferase under the control of IFIT2 promoter.

In data set [3] the test system is NF-κB. The experiment in a line: Single-point screen: NFκB activation (SEAP reporter). In kind it is cell-based, human. To be noted: A549-Dual cells, compound 50 μM pre-treatment, NP-1+mRNA 20 ng/well + IFN; for fold induction at 50 µM: Homo sapiens, 24 h, read-out: fold NFkB over IFN.
Text: as §1

The test system of data set [4] is A549-Dual cells. The experiment in a line: Single-point screen: cell viability by CellTiter-Glo. The note with it: A549-Dual cells incubated overnight with compound at 50 μM, then NP-1+mRNA 20 ng/well + IFN 1:50. (Cellular ATP, detected with luciferase, serves as a proxy for viable cell number.)
Experimental: Finally, cell lysates were assayed with the CellTiter-GLO® assay (Promega) to obtain a luminescent-based measure of cell viability. In summary, the readouts from the high throughput screen included the primary measure of nLuc protein expression and three secondary readouts: IFIT, NF-κB and cell viability.
For each assay, A549-dual cells were plated at a seeding density of about 5×10^4 cells per well. Cells were incubated overnight with compounds at 50 microMolar (μM) in 1% v/v dimethyl sulfoxide (DMSO). For control wells, 1% DMSO was added to each well. After about 24 hours, the culture medium was removed, and cells were transfected with NP-1+mRNA at 20 ng/mRNA/well in Opti-MEM® media (Thermofisher). Interferon (IFN) was diluted to 1:50 in all test wells except for the RNA only wells and media only wells. Anti-IFN was diluted 1:1000 in “RNA+anti-IFN+IFN” wells. Cells were incubated for 4 hours, and culture medium was added to the Opti-MEM® medium. After 24 hours, assay supernatants were collected and analyzed for nLuc expression, IFIT2 (qLuc), and NFκB (qBLUE-SEAP™, InvivoGen) activation. Cells were then lysed, and cell viability was determined by CellTiter-Glo® (Promega) assay.
In data set [5] the test system is NF-κB. The experiment in a line: NP-35 co-transfection: NF-κB induction. In kind it is cell-based, human. The note with it: highest concentrations of NP-35-formulated compound. The method, then: The objective of this experiment was to evaluate co-transfection of LNP (e.g., NP-35) with lead small molecule inhibitor compounds for enhancing protein expression from repRNA in transfected cells. […] LNP was formulated according to NP-35 formulation. Additionally, nanoparticles were also formulated according to […] formulation. About 5×10^4 A549-Dual cells were incubated at 37° C. with 5% CO2 for 18-24 hours with the compound at a concentration ranging from 1 μg to 0.06 ng. The cells were then treated with repRNA-nLuc, IFN, and nanoparticles (NP-35 or NP-30). The treated cells were incubated at 37° C. with 5% CO2 for 18-24 hours. nLuc expression was measured by Nano-GLO assay and plotted against the concentration of repRNA-nLuc that was used for the transfection (FIG. 14A-14H).

The subject of data set [6] is A549-Dual cells. The experiment in a line: Single-point kinase inhibitor library screen: nLuc expression from NP-1+mRNA-nLuc in IFN-treated cells. Format: cell-based, human. The note with it: compound 50 μM pre-treatment, NP-1+mRNA 20 ng/well + IFN; for fold induction at 50 µM: Homo sapiens, read-out: fold nLuc over RNA + IFN. The method, then:
as §1
To measure protein expression from mRNA, which is the primary readout for compound down selection, mRNA encoding a secreted version of nanoluciferase (mRNA-nLuc) was used. Protein expression was measured via a luminometer using standard techniques.
As additional criterion, expression in compound treated cells was compared relative to mRNA-transfected cells without IFN (“RNA only”) (data not shown).
A library of small molecule kinase inhibitors was screened for the ability to enhance expression of mRNA-encoded genes when co-delivered with mRNA.

Data set [7] relates to A549-Dual cells. The experiment in a line: NP-35 co-encapsulating repRNA-nLuc and Dinaciclib: nLuc expression. Format: cell-based, human. The note with it: 0.5 mM Dinaciclib co-encapsulated, A549-Dual cells + IFN. The method, then: Briefly, A549-Dual cells were incubated at 37° C. with 5% CO2 for 18-24 hours. […] About 5×10^4 cells were transfected with the formulation at different concentrations in the presence of IFN. The transfected cells were incubated at 37° C. with 5% CO2 for 18-24 hours. nLuc expression was measured by Nano-GLO assay and plotted against the concentration of repRNA-nLuc that was used for the transfection (FIG. 15).

The target in data set [8] is mouse IFN alpha/beta receptor (IFNAR-1) (mouse) (UniProt P33896). The experiment in a line: cell-based or functional assay.
Chain of mouse IFN alpha/beta receptor (IFNAR-1) (mouse) (P33896 27-590 limits assumed): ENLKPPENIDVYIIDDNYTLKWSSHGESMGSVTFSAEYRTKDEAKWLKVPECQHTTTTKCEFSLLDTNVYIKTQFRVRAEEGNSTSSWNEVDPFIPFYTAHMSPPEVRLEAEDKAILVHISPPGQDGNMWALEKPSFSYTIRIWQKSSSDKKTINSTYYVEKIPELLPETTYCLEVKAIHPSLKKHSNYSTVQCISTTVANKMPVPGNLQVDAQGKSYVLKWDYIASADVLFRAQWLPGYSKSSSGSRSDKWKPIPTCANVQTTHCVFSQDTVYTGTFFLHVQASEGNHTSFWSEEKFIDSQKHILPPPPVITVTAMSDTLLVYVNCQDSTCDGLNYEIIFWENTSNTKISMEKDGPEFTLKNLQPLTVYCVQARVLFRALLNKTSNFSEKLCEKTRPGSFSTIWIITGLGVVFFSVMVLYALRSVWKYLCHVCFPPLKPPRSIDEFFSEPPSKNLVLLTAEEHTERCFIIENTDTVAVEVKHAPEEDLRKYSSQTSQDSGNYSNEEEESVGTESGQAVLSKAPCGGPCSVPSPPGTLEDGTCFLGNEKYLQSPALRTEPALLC

For `CC(=O)N[C@@H]1CCC[C@H](C(=O)Nc2cc(-c3cnn4c3CC(C)(C)C4)c(Cl)cn2)C1` [AZD4573, (1S,3R)-3-acetamido-N-[5-chloro-4-(5,5-dimethyl-4,6-dihydropyrrolo[1,2-b]pyrazol-3-yl)pyridin-2-yl]cyclohexane-1-carboxamide], the “total protein (SEAP) expression, AUC of expression kinetics” value with C57BL/6 mice is “significant increase in total protein expression”. Moreover, in the data set with IFIT2 [1], the IFIT2 induction result is given as “significant dose-dependent reduction in IFIT2 induction”. In addition, the “ZIKV-117 expression compared to no compound group” value with BALB/c mice is “higher total expression than no compound group but not statistically significant”.

With `CC(C)n1cnc2c(NCc3nc4c(F)c(F)ccc4[nH]3)nc(N3CCCC[C@H]3CCO)nc21` [CDK12-IN-3, 2-[(2S)-1-[6-[(4,5-difluoro-1H-benzimidazol-2-yl)methylamino]-9-propan-2-ylpurin-2-yl]piperidin-2-yl]ethanol], the IFIT2 induction entry with IFIT2 [1] is “significant dose-dependent reduction in IFIT2 induction”.

For `COc1ccc(F)cc1-c1cc(NC(=O)[C@@H]2CCCNC2)ncc1Cl` [CDK-IN-2, (3R)-N-[5-chloro-4-(5-fluoro-2-methoxyphenyl)pyridin-2-yl]piperidine-3-carboxamide], the fold induction at 50 µM turned out to be 1.06 in the data set on IFIT2 [2], 0.28 in the data set with NF-κB [3] and 157 in the data set with A549-Dual cells [6]. Also, in the data set on A549-Dual cells [4], the “% viability” value is 23%. Moreover, the IFIT2 induction entry in the data set with IFIT2 [1] is listed as “significant dose-dependent reduction in IFIT2 induction”. For the same compound, in the data set on NF-κB [5], the “IFN-beta mediated NF-κB induction relative to cells transfected with NP-35” value was “slight increase in IFN-beta mediated NF-κB induction”.

Turning to `CNc1nc(C)c(-c2nc(Nc3cccc(S(N)(=O)=O)c3)ncc2F)s1` [CDKI-73, 3-[[5-fluoro-4-[4-methyl-2-(methylamino)-1,3-thiazol-5-yl]pyrimidin-2-yl]amino]benzenesulfonamide], the “ZIKV-117 expression compared to no compound group” value with BALB/c mice was “higher total expression than no compound group but not statistically significant”. Also, the “IFN-beta mediated NF-κB induction relative to cells transfected with NP-35” value in the data set with NF-κB [5] is “slight increase in IFN-beta mediated NF-κB induction”.

For the compound `CCc1cnn2c(NCc3ccc[n+]([O-])c3)cc(N3CCCC[C@H]3CCO)nc12` [Dinaciclib, 2-[(2S)-1-[3-ethyl-7-[(1-oxidopyridin-1-ium-3-yl)methylamino]pyrazolo[1,5-a]pyrimidin-5-yl]piperidin-2-yl]ethanol], the “nLuc expression relative to NP-35/repRNA-nLuc without Dinaciclib” value in the data set with A549-Dual cells [7] is “significantly enhanced nLuc expression”. Further, in the data set with IFIT2 [1], the IFIT2 induction result was “significant dose-dependent reduction in IFIT2 induction”. Also, the “ZIKV-117 expression compared to positive control (anti-IFNAR-1)” value with BALB/c mice (Dinaciclib 5 mg/kg IV) was “more rapid and higher magnitude expression”. In addition, the “ZIKV-117 expression compared to no compound group” value with BALB/c mice is “significantly enhanced ZIKV-117 expression”.

With `CC(C)c1c2cc(-c3ccnc(NC4CCC(NC5CCOCC5)CC4)n3)ccc2nn1C` (stereo not drawn) [LY2857785, 4-N-[4-(2-methyl-3-propan-2-ylindazol-5-yl)pyrimidin-2-yl]-1-N-(oxan-4-yl)cyclohexane-1,4-diamine], the “IFN-beta mediated NF-κB induction relative to cells transfected with NP-35” value with NF-κB [5] is on record as “slight increase in IFN-beta mediated NF-κB induction”.

For the compound `Nc1nc(N[C@H]2C[C@@H]3CC[C@H]2C3)sc1C(=O)c1ccccc1[N+](=O)[O-]` [MC180295, [4-amino-2-[[(1S,2S,4R)-2-bicyclo[2.2.1]heptanyl]amino]-1,3-thiazol-5-yl]-(2-nitrophenyl)methanone], in the data set on NF-κB [5], the “IFN-beta mediated NF-κB induction relative to cells transfected with NP-35” value is “slight increase in IFN-beta mediated NF-κB induction”.

For `C[C@@]1(O)CCC[C@H]1n1c(=O)c(C(F)F)cc2cnc(NC3CCN(S(C)(=O)=O)CC3)nc21` [PF-06873600, 6-(difluoromethyl)-8-[(1R,2R)-2-hydroxy-2-methylcyclopentyl]-2-[(1-methylsulfonylpiperidin-4-yl)amino]pyrido[2,3-d]pyrimidin-7-one], the fold induction at 50 µM came to 1.08 in the data set on IFIT2 [2], 0.83 with NF-κB [3] and 120 in the data set with A549-Dual cells [6]. In addition, in the data set on A549-Dual cells [4], the “% viability” value came to 55%.

Consider `Cn1nccc1Nc1nccc(-c2ccn([C@H](CO)c3ccc(Cl)c(F)c3)c(=O)c2)n1` [Ravoxertinib hydrochloride, 1-[(1S)-1-(4-chloro-3-fluorophenyl)-2-hydroxyethyl]-4-[2-[(2-methylpyrazol-3-yl)amino]pyrimidin-4-yl]pyridin-2-one], for which the fold induction at 50 µM in the data set with IFIT2 [2] stood at 0.24; with NF-κB [3], 1.17; with A549-Dual cells [6], 162. Moreover, the “% viability” value in the data set on A549-Dual cells [4] is given as 96%.

Turning to `COc1ccc(CCNCc2ccc(OCc3ccc(Cl)nc3)c(OC)c2)cc1OC` [SBE13 (Hydrochloride)], in the data set on IFIT2 [2], the “fold IFIT over IFN” value is 0.32 fold. Besides, the “fold NFkB over IFN” value in the data set on NF-κB [3] was 0.73 fold. In addition, the “% viability” value with A549-Dual cells [4] worked out at 105%. Besides, the “fold nLuc over RNA + IFN” value with A549-Dual cells [6] is 179.07 fold.

For the compound `CC[C@H](CO)Nc1nc(NCc2ccccc2)c2ncn(C(C)C)c2n1` [Seliciclib, (2R)-2-[[6-(benzylamino)-9-propan-2-ylpurin-2-yl]amino]butan-1-ol], the fold induction at 50 µM with IFIT2 [2] is 1.32; in the data set on NF-κB [3], 0.55; in the data set on A549-Dual cells [6], 118. The “% viability” value in the data set on A549-Dual cells [4] is given as 45%.

Consider `O=C1NCCSc2c1sc1ccc(O)cc21` [kb NB 142-70, 9-hydroxy-3,4-dihydro-2H-[1]benzothiolo[2,3-f][1,4]thiazepin-5-one], for which the fold induction at 50 µM came out at 2.31 in the data set on IFIT2 [2], 0.61 in the data set with NF-κB [3] and 187 in the data set on A549-Dual cells [6]. The “% viability” value with A549-Dual cells [4] came out at 52%.

In data set [8], “IFNAR-1 blocking monoclonal antibody (MAR1-5A3)” gave an SEAP expression in serum of C57BL/6 mice on day seven after IM injection of NP-1/repRNA-SEAP of 10 fold.
